Key:
Test in all cases: Irreversible inhibition (IC50 shift) in dog liver microsomes
Type in all cases: in vitro ADME
CYP2A6 = test system: CYP2A6
Protocol: (§1) To characterize the reversible or irreversible mechanism of CYP450 inhibition via LKMS, the shifted IC50 values were used to determine whether the inhibition of LKMS on CYP450 was time-dependent. […] The above mixture was then incubated for another 30 min in the presence of NADPH. The concentrations of LKMS were designated as 0.2, 2, 4, 6, 8, 10, 20, 40, and 80 μM, and the concentration of each probe substrate was based on each Km value. The concentrations of the probe substrates of CYP2A6, CYP2B6, and CYP2D6 were at single concentrations approximating their Km values.

CYP2B6 = biological target: T1, CYP2B6 (Canis lupus familiaris, UniProt P24460)
T1 construct: from tissue; host or cells: dog liver microsomes (DLM)
T1 sequence (P24460 1-494): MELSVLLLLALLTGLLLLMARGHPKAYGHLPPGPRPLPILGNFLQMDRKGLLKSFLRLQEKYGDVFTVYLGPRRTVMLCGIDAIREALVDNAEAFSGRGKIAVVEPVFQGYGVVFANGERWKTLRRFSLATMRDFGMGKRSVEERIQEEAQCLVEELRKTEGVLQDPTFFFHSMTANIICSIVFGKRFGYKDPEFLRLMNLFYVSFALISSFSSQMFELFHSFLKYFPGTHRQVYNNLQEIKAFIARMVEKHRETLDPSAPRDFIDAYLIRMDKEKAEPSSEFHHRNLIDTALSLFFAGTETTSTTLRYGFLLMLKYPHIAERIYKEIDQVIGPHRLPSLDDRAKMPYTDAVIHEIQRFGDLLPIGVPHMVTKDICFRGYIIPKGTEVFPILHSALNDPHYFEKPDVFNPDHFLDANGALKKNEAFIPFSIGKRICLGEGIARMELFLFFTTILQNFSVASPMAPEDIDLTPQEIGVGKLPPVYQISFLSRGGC
Protocol: as §1

CYP2D6 = biological target: T2, CYP2D6 (Canis lupus familiaris, UniProt Q29473)
T2 construct: from tissue; host or cells: dog liver microsomes (DLM)
T2 sequence (Q29473 1-500): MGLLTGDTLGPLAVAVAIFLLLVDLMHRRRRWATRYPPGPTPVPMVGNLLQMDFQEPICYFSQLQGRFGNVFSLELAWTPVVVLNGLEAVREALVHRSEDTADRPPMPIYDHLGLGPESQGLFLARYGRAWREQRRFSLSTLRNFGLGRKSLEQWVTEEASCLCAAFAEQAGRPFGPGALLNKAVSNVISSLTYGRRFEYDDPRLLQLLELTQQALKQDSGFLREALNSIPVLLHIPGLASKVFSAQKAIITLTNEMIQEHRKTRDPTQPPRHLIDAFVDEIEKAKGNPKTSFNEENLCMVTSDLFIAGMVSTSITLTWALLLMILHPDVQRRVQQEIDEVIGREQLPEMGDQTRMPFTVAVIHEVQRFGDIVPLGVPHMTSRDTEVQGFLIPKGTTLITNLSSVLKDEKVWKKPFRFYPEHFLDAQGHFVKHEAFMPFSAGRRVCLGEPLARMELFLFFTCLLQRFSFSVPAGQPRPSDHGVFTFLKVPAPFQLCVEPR
Protocol: as §1

In the case of Lekethromycin [LKMS], the “IC50 fold-shift, Shift Ratio (−NADPH/+NADPH)” value (from here on “IC50 fold-shift, Shift Ratio”) (CYP2A6; CYP2A6, 30 min preincubation at 37 °C with and without NADPH) is reported as 1.29, the Time-dependent inhibition (CYP2A6; CYP2A6, judged from IC50 fold-shift <1.5) is reported as “might not be a time-dependent inhibitor” and the “IC50 fold-shift, Shift Ratio” value (CYP2B6; CYP2B6, 30 min preincubation at 37 °C with and without NADPH) is reported as 0.88. For the same substance, the Time-dependent inhibition (CYP2B6; CYP2B6, judged from IC50 fold-shift <1.5) was “might not be a time-dependent inhibitor”, the “IC50 fold-shift, Shift Ratio” value (CYP2D6; CYP2D6, 30 min preincubation at 37 °C with and without NADPH) was 1.10 and the Time-dependent inhibition (CYP2D6; CYP2D6, judged from IC50 fold-shift <1.5) was “might not be a time-dependent inhibitor”.
